Active and inactive are the calls of the source. No rule for the calls is given here.
Target: Calpain-2 catalytic subunit (Sus scrofa) (UniProt P43367)
Assay: pig calpain II inhibitor potency, dose response, biochemical, fluorogenic peptide substrate (AID 1420)
Conditions: purified calpain II, 30 min

Calpain-2 catalytic subunit (Sus scrofa), sequence (P43367 whole entry, looked up): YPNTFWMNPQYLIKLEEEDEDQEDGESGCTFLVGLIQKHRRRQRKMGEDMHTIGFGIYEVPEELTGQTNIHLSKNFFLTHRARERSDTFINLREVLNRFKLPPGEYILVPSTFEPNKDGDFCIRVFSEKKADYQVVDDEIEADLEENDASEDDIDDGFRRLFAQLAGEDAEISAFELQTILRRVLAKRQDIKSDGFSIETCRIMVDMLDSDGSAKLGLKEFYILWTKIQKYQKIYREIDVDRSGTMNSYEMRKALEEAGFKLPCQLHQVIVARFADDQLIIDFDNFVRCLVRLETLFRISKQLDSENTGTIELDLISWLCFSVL

IC50: inactive
Compound: CC(C)(C)C1CCC(=NNc2ccc(S(N)(=O)=O)cc2[N+](=O)[O-])CC1 (stereo unspecified)

Source: PubChem BioAssay AID1420 (Emory University Molecular Libraries Screening Center, 2008)
